Results published in US20260285850A1, “SUBSTITUTED OXAZOLIDINONES AND IMIDAZOLINONES AS HERBICIDES” (FMC CORPORATION, priority 2023, published 2026).

Legend:
Type in all cases: in vivo
[1] = test system: barnyardgrass (Echinochloa crus-galli); experiment: Test A preemergence soil spray, visual injury rating 0-100; conditions: 10 days
Procedure, shortened: (§1)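 Grow plants in loam soil blended with sand. Apply formulated compound (non-phytotoxic solvent, surfactant) as a directed soil spray before emergence, or to plants at the one- to two-leaf stage after emergence. Hold in greenhouse 10 days, then rate injury visually versus untreated controls on a 0-100 scale.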

[2] = test system: blackgrass (Alopecurus myosuroides); experiment: as above; conditions: 10 days
Procedure, shortened: as §1

corn (Zea mays) [3] = experiment: as above; conditions: 10 days
Procedure, shortened: as §1

[4] = test system: green foxtail (Setaria viridis); experiment: as above; conditions: 10 days
Procedure, shortened: as §1

kochia (Bassia scoparia) [5] = experiment: as above; conditions: 10 days
Procedure, shortened: as §1

[6] = test system: oat, wild (wild oat, Avena fatua); experiment: as above; conditions: 10 days
Procedure, shortened: as §1

[7] = test system: palmer (palmer amaranth, palmer pigweed, Amaranthus palmeri); experiment: as above; conditions: 10 days
Procedure, shortened: as §1

[8] = test system: ragweed (common ragweed, Ambrosia artemisiifolia); experiment: as above; conditions: 10 days
Procedure, shortened: as §1

[9] = test system: ryegrass, Italian (italian ryegrass, Lolium multiflorum); experiment: as above; conditions: 10 days
Procedure, shortened: as §1

soybean (Glycine max) [10] = experiment: as above; conditions: 10 days
Procedure, shortened: as §1

[11] = test system: wheat (Triticum aestivum); experiment: as above; conditions: 10 days
Procedure, shortened: as §1

[12] = test system: barnyardgrass (Echinochloa crus-galli); experiment: Test A postemergence application, visual injury rating 0-100
Procedure, shortened: as §1

[13] = test system: blackgrass (Alopecurus myosuroides); experiment: as above
Procedure, shortened: as §1

corn (Zea mays) [14] = experiment: as above
Procedure, shortened: as §1

[15] = test system: green foxtail (Setaria viridis); experiment: as above
Procedure, shortened: as §1

[16] = test system: horseweed (Erigeron canadensis); experiment: as above
Procedure, shortened: as §1

kochia (Bassia scoparia) [17] = experiment: as above
Procedure, shortened: as §1

[18] = test system: oat, wild (wild oat, Avena fatua); experiment: as above
Procedure, shortened: as §1

[19] = test system: palmer (palmer amaranth, palmer pigweed, Amaranthus palmeri); experiment: as above
Procedure, shortened: as §1

[20] = test system: ragweed (common ragweed, Ambrosia artemisiifolia); experiment: as above
Procedure, shortened: as §1

[21] = test system: ryegrass, Italian (italian ryegrass, Lolium multiflorum); experiment: as above
Procedure, shortened: as §1

soybean (Glycine max) [22] = experiment: as above
Procedure, shortened: as §1

[23] = test system: wheat (Triticum aestivum); experiment: as above
Procedure, shortened: as §1

[24] = test system: barnyardgrass (Echinochloa crusgalli); experiment: Test B flooded paddy test, visual plant response rating 0-100; conditions: 250 g ai/ha, Flood, applied to paddy water, evaluated after 13 days
Procedure, shortened: (§2)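 2-leaf plants; flood 3 cm over soil; compound dosed into paddy water; depth kept constant; greenhouse 13 d; visual scoring vs controls. Dash = no result.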

[25] = test system: ducksalad (Heteranthera limosa); experiment: as above; conditions: 250 g ai/ha, Flood, applied to paddy water, evaluated after 13 days
Procedure, shortened: as §2

rice (Oryza sativa) = experiment: as above; conditions: 250 g ai/ha, Flood, applied to paddy water, evaluated after 13 days
Procedure, shortened: as §2

[26] = test system: sedge, umbrella (small-flower umbrella sedge, Cyperus difformis); experiment: as above; conditions: 250 g ai/ha, Flood, applied to paddy water, evaluated after 13 days
Procedure, shortened: as §2

[27] = 62 g ai/ha, 0 = no effect, 100 = complete control
[28] = 62 g ai/ha, postemergence, 10 days, 0 = no effect, 100 = complete control
[29] = Postemergence, 16 g ai/ha, greenhouse 10 days, 0 no effect, 100 complete control

CC1(C(=O)NC2CC=C(C(=O)OCC3CC3)C2)CN(c2cc(F)cc(Cl)c2)C(=O)O1 (centres unmarked) [Compound 144]
60: Ryegrass, Italian plant response rating (0-100) [9, 27] | Ryegrass, Italian plant response rating (0 to 100 scale) [21, 29] | Wheat plant response rating (0 to 100 scale) [23, 29]
20: Oat, Wild plant response rating (0-100) [6, 27] | Oat, Wild plant response rating (0 to 100 scale) [18, 29] | Ragweed plant response rating (0 to 100 scale) [20, 29]
10: Ryegrass, Italian plant response rating ([9]; 16 g ai/ha, 0 to 100 scale) | Soybean plant response rating (0-100) (soybean (Glycine max) [10]; [27])
80: Pigweed, Palmer plant response rating (0-100) [7, 27] | Horseweed plant response rating (0-100) [16, 28] | Kochia plant response rating (0-100) (kochia (Bassia scoparia) [17]; [28]) | Kochia plant response rating (0 to 100 scale) (kochia (Bassia scoparia) [17]; [29]) | Soybean plant response rating (0-100) (soybean (Glycine max) [22]; [28]) | Soybean plant response rating (0 to 100 scale) (soybean (Glycine max) [22]; [29]) | Plant response rating, Ducksalad (0 to 100 scale, 0 is no effect and 100 is complete control) [25]
70: Wheat plant response rating (0-100) [11, 27] | Blackgrass plant response rating (0 to 100 scale) [13, 29] | Pigweed, Palmer plant response rating (0 to 100 scale) [19, 29]
90: Foxtail, Green plant response rating (0-100) [4, 27] | Barnyardgrass plant response rating (0 to 100 scale) [12, 29] | Foxtail, Green plant response rating (0-100) [15, 28] | Foxtail, Green plant response rating (0 to 100 scale) [15, 29] | Pigweed, Palmer plant response rating (0-100) [19, 28] | Ryegrass, Italian plant response rating (0-100) [21, 28] | Wheat plant response rating (0-100) [23, 28]
50: Corn plant response rating (0-100) (corn (Zea mays) [3]; [27]) | Pigweed, Palmer plant response rating ([7]; 16 g ai/ha, 0 to 100 scale) | Horseweed plant response rating (0 to 100 scale) [16, 29] | Ragweed plant response rating (0-100) [20, 28] | Plant response rating, Rice (0 to 100 scale, 0 is no effect and 100 is complete control) (rice (Oryza sativa))
100: Barnyardgrass plant response rating (0-100) [1, 27] | Barnyardgrass plant response rating (0-100) [12, 28] | Blackgrass plant response rating (0-100) [13, 28] | Corn plant response rating (0-100) (corn (Zea mays) [14]; [28]) | Corn plant response rating (0 to 100 scale) (corn (Zea mays) [14]; [29]) | Plant response rating, Sedge, Umbrella (0 to 100 scale, 0 is no effect and 100 is complete control) [26]
40: Kochia plant response rating (0-100) (kochia (Bassia scoparia) [5]; [27]) | Oat, Wild plant response rating (0-100) [18, 28]
0: Barnyardgrass plant response rating ([1]; 16 g ai/ha, 0 to 100 scale) | Blackgrass plant response rating ([2]; 16 g ai/ha, 0 to 100 scale) | Blackgrass plant response rating (0-100) [2, 27] | Corn plant response rating (corn (Zea mays) [3]; 16 g ai/ha, 0 to 100 scale) | Foxtail, Green plant response rating ([4]; 16 g ai/ha, 0 to 100 scale) | Kochia plant response rating (kochia (Bassia scoparia) [5]; 16 g ai/ha, 0 to 100 scale) | Oat, Wild plant response rating ([6]; 16 g ai/ha, 0 to 100 scale) | Ragweed plant response rating ([8]; 16 g ai/ha, 0 to 100 scale) | Ragweed plant response rating (0-100) [8, 27] | Soybean plant response rating (soybean (Glycine max) [10]; 16 g ai/ha, 0 to 100 scale) | Wheat plant response rating ([11]; 16 g ai/ha, 0 to 100 scale)
95: Plant response rating, Barnyardgrass (0 to 100 scale, 0 is no effect and 100 is complete control) [24]
